Results on 22 compounds are retold here after US7087626B2, “Pyrrole derivatives as pharmaceutical agents” (Eli Lilly and Company, priority 2001, dated 2006).

Counter-ions that a name gives are not always drawn.

The first assay addresses T1, TGF-β Type I (RIT204D) receptor (Homo sapiens, UniProt P36897, T204D).
T1 construct: The 6×-HIS tagged cytoplasmic kinase domain of each receptor was expressed and purified from Sf9 insect cell lysates; 6xHis; made in house; host or cells: Sf9 insect cells
T1 sequence (P36897 148-503 T204D limits assumed): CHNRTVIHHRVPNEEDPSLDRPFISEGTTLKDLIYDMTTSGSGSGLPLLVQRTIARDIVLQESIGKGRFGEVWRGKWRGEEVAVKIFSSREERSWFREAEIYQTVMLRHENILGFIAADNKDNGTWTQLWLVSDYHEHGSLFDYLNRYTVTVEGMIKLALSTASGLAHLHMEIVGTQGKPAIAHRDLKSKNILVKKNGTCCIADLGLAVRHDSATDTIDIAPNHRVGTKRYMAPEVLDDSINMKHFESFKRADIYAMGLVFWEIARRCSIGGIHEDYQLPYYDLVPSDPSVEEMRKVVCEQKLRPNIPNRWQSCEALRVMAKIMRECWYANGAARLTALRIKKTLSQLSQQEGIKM
Description: TGF-β Receptor I (RIT204D) in vitro kinase reaction. The class given is biochemical. Conditions: 6×-HIS cytoplasmic kinase domain, 4 uM ATP, 30° C., 1 hr. The procedure:
TGF-β Receptor I and II Purification and in vitro Kinase Reactions
For TGF-β Type I (RIT204D) and Type II (RII WT) Receptors: The 6×-HIS tagged cytoplasmic kinase domain of each receptor was expressed and purified from Sf9 insect cell lysates as briefly described below:
Cell pellets after 48-72 hrs of infection were lysed in lysis buffer (LB: 50 mM Tris pH 7.5, 150 mM NaCl, 50 mM NaF, 0.5% NP40 with freshly added 20 mM, β-mercaptoethanol, 10 mM imidazole, 1 mM PMSF, 1×EDTA-free Complete Protease Inhibitor (Boehringer Mannheim).
Reactions: 170-200 nM enzyme in 1×KB, compound dilution series in 1×KB/16% DMSO (20 uM to 1 nM final concentration with 4% DMSO final concentration), reactions started by adding ATP mix (4 uM ATP/1 uCi ^33P-[…]-ATP final concentrations) in 1×KB.
Reactions were incubated at 30° C. for 1 hr RIT204D or 40 min for RII WT. Reactions were stopped and quantitated using standard TCA/BSA precipitation onto Millipore FB glass fiber filter plates and by liquid scintillation counting on a MicroBeta JET.
Compound `CN(C)C(=O)c1cccc(Oc2ccc3c(-c4c(-c5ccccn5)nn5c4CCC5)ccnc3c2)c1` [N,N-Dimethyl-3-[4-(2-pyridin-2-yl-5,6-dihydro-4H-pyrrolo[1,2-b]pyrazol-3-yl)-quinolin-7-yloxy]-benzamide] returned a half-maximal inhibitory concentration (IC50) below 20 µM.

The target in a further assay is T2, KDR (VEGFR2) (Homo sapiens, UniProt P35968).
T2 construct: The 6×-HIS tagged cytoplasmic kinase domain of KDR was expressed and purified from Sf9 insect cell lysates; 6xHis; made in house; host or cells: Sf9 insect cells
T2 sequence (P35968 834-1162 limits assumed, species assumed): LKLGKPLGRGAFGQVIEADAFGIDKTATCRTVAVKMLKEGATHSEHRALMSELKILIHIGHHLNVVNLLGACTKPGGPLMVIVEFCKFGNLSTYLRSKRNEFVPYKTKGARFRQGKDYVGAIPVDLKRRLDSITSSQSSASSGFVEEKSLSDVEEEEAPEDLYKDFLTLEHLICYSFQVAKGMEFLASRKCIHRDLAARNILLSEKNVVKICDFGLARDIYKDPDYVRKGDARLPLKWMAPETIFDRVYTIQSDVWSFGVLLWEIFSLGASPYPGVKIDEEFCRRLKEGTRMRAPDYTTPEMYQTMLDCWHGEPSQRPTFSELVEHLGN
Nature of the assay: KDR (VEGFR2) in vitro kinase assay. The class given is biochemical. The following applies: 1 ug enzyme, 1 uM ATP, 30° C., 20 min. The procedure:
KDR (VEGFR2) Purification and in vitro Kinase Assay
The 6×-HIS tagged cytoplasmic kinase domain of KDR was expressed and purified from Sf9 insect cell lysates as described above with the following modification:
1× kinase buffer for chromatography washes and elution was changed to 100 mM HEPES pH 7.5, 10 mM MnCl2 and 5 mM β-mercaptoethanol. The resulting material was approximately 40% pure and had tyrosine autophosphorylation activity.
Reactions: 1 ug enzyme in 1×KB, compound dilution series in 1×KB/16% DMSO (20 uM to 1 nM final concentration with 4% DMSO final concentration), reactions were started by adding ATP mix (1 uM ATP/1 uCi ^33P-[…]-ATP final concentrations) in 1×KB.
Reactions were incubated at 30° C. for 20 min. The reactions were stopped and quantitated using standard TCA/BSA precipitation onto Millipore FC glass fiber filter plates and by liquid scintillation counting on a MicroBeta JET.
Consider `NCCCOc1ccc2c(-c3c(-c4ccccn4)nn4c3CCC4)ccnc2c1` [3-[4-(2-pyridin-2-yl-5,6-dihydro-4H-pyrrolo[1,2-b]pyrazol-3-yl)-quinolin-7-yloxy]-propylamine], for which the IC50 is below 20 µM.
Same read-out and setting: with `c1ccc(-c2nn3c(c2-c2ccnc4cc(OCCCn5ccnn5)ccc24)CCC3)nc1` [4-(2-Pyridin-2-yl-5,6-dihydro-4H-pyrrolo[1,2-b]pyrazol-3-yl)-7-(3-[1,2,3]triazol-1-yl-propoxy)-quinoline] the figure was below 20 µM.
Same read-out and setting: with `c1ccc(-c2nn3c(c2-c2ccnc4cc(OCCCN5CCCC5)ccc24)CCC3)nc1` [4-(2-Pyridin-2-yl-5,6-dihydro-4H-pyrrolo[1,2-b]pyrazol-3-yl)-7-(3-pyrrolidin-1-yl-propoxy)-quinoline] the figure was below 20 µM; with `Oc1ccc2c(-c3c(-c4ccccn4)nn4c3CCC4)ccnc2c1` [4-(2-Pyridin-2-yl-5,6-dihydro-4H-pyrrolo[1,2-b]pyrazol-3-yl)-quinolin-7-ol], below 20 µM; with `CC(=O)NCCNC(=O)c1ccc2c(-c3c(-c4ccccn4)nn4c3CCC4)ccnc2c1` [4-(2-Pyridin-2-yl-5,6-dihydro-4H-pyrrolo[1,2-b]pyrazol-3-yl)-quinoline-7-carboxylic acid (2-acetylamino-ethyl)-amide], below 20 µM.
The same measure, in the same setting: then `c1ccc(-c2nn3c(c2-c2ccnc4ccccc24)OCC3)nc1` [4-(6-Pyridin-2-yl-2,3-dihydro-pyrazolo[5,1-b]oxazol-7-yl)-quinoline dioxylate salt], with below 20 µM; and `Cc1cccc(-c2nn3c(c2-c2ccnc4cc(OCCCN5CCOCC5)ccc24)CCC3)n1` [4-[2-(6-Methyl-pyridin-2-yl)-5,6-dihydro-4H-pyrrolo[1,2-b]pyrazol-3-yl]-7-(3-morpholin-4-yl-propoxy)-quinoline], with below 20 µM.
`Cc1cccc(-c2nn3c(c2-c2ccnc4cc(C(=O)NCCCN(C)C)ccc24)CCC3)n1` [4-[2-(6-Methyl-pyridin-2-yl)-5,6-dihydro-4H-pyrrolo[1,2-b]pyrazol-3-yl]-quinoline-7-carboxylic acid (3-dimethylamino-propyl)-amide] yielded an IC50 below 20 µM.
Still for that read-out and setting: with `COC(=O)c1ccc2c(-c3c(-c4cccc(C)n4)nn4c3CCC4)ccnc2c1` [4-[2-(6-Methyl-pyridin-2-yl)-5,6-dihydro-4H-pyrrolo[1,2-b]pyrazol-3-yl]-quinoline-7-carboxylic acid methyl ester] the figure was below 20 µM; with `CN(CCCOc1ccc2c(-c3c(-c4ccccn4)nn4c3CCC4)ccnc2c1)Cc1ccccc1` [Benzyl-methyl-{3-[4-(2-pyridin-2-yl-5,6-dihydro-4H-pyrrolo[1,2-b]pyrazol-3-yl)-quinolin-7-yloxy]-propyl}-amine], below 20 µM; with `CCN(CC)CCCOc1ccc2c(-c3c(-c4cccc(C)n4)nn4c3CCC4)ccnc2c1` [Diethyl-(3-{4-[2-(6-methyl-pyridin-2-yl)-5,6-dihydro-4H-pyrrolo[1,2-b]pyrazol-3-yl]-quinolin-7-yloxy}-propyl)-amine], below 20 µM.
On the same count and under the same terms, with `CN(C)C(=O)c1cccc(Oc2ccc3c(-c4c(-c5ccccn5)nn5c4CCC5)ccnc3c2)c1` [N,N-Dimethyl-3-[4-(2-pyridin-2-yl-5,6-dihydro-4H-pyrrolo[1,2-b]pyrazol-3-yl)-quinolin-7-yloxy]-benzamide] the figure was below 20 µM.

The subject of a further assay is TGF-β dependent luciferase production in Mv1Lu C1 cells (p3TP-Lux reporter). Nature of the assay: MV1LU p3TP-Lux assay. The class given is cell-based. The following applies: TGF-β1 10 pM, 16-20 hrs. The text has this:
A stable Mv1Lu clone (C1) containing the p3TP-Lux reporter was created by standard transfection and puromycin selection protocols. This stable clone was used to screen the example compounds for their ability to inhibit TGF-β dependent luciferase production as briefly described below: • 1. Plated Mv1Lu C1 cells in Wallac™ Black Isoplates • 2. Allowed cells to adhere overnight. • 3. Removed media and replaced with 0.5% FBS DMEM media • 4. Added the compound dilution series in 0.5% FBS/DMEM containing 1% DMSO such that the final compound concentration ranged from 20 uM to 0.1 nM and the final DMSO concentration was 0.2%. • 5. Incubated at 37° C./5% CO2 for 2 hrs. • 6. Added 0.5% FBS/DMEM as control or TGF-β1 diluted in 0.5% FBS/DMEM (final concentration of 10 pM) to the −/+ TGF-β wells respectively • 7. Incubated for 16-20 hrs. at 37° C./5% CO2 • 8. Removed media and rinsed 1× with PBS. • 9. Removed PBS and lysed the cells with 1× Passive Lysis Buffer (Promega) at room temperature. • 10. Counted relative luciferase activity on the MicroBeta JET by injecting Luciferase Assay Reagent II (PROMEGA).
The use of the above assay in measuring TGF-β responsive activity is described in Wrana, et al. Cell 71: 1003-1014 (1992).
In turn, `NNC(=O)c1ccc2nccc(-c3c(-c4ccccn4)nn4c3CCC4)c2c1` [4-(2-Pyridin-2-yl-5,6-dihydro-4H-pyrrolo[1,2-b]pyrazol-3-yl)-quinoline-6-carboxylic acid hydrazide] came in with a 50% inhibitory concentration (IC50) below 20 µM.
Compound `OCC1CCc2c(-c3ccnc4ccccc34)c(-c3ccccn3)nn21` (centres unmarked) [4-(6-Hydroxymethyl-2-pyridin-2-yl-5,6-dihydro-4H-pyrrolo[1,2-b]pyrazol-3yl)-quinoline] displayed a half-inhibitory concentration (IC50) below 20 µM.
Consider `COC(=O)c1ccc2nccc(-c3c(-c4cccc(C)n4)nn4c3CCC4)c2c1` [4-[2-(6-Methyl-pyridin-2-yl)-5,6-dihydro-4H-pyrrolo[1,2-b]pyrazol-3-yl]-quinoline-6-carboxylic acid methyl ester], for which the IC50 was below 20 µM.
Same read-out and setting: with `Cc1cccc(-c2nn3c(c2-c2ccc(F)cc2)CC(c2ccc(Cl)cc2)C3)n1` (centres unmarked) [5-(4-Chloro-phenyl)-3-(4-fluoro-phenyl)-2-(6-methyl-pyridin-2-yl)-5,6-dihydro-4H-pyrrolo[1,2-b]pyrazole] the figure was below 20 µM; with `Cc1cccc(-c2nn3c(c2-c2ccnc4ccc(-c5ccc6c(c5)OCO6)cc24)CCC3)n1` [6-Benzo[1,3]dioxol-5-yl-4-[2-(6-methyl-pyridin-2-yl)-5,6-dihydro-4H-pyrrolo[1,2-b]pyrazol-3-yl]-quinoline], below 20 µM.
Same read-out and setting: then `c1ccc(-c2nn3c(c2-c2ccnc4cc(OCCCN5CCCCCC5)ccc24)CCC3)nc1` [7-(3-azepan-1-yl-propoxy)-4-(2-pyridin-2-yl-5,6-dihydro-4H-pyrrolo[1,2-b]pyrazol-3-yl)-quinoline], with below 20 µM; and `Cc1cccc(-c2nn3c(c2-c2ccnc4cc(OCCCCl)ccc24)CCC3)n1` [7-(3-chloro-propoxy)-4-[2-(6-methyl-pyridin-2-yl)-5,6-dihydro-4H-pyrrolo[1,2-b]pyrazol-3-yl]-quinoline], with below 20 µM.
Still for that read-out and setting: with `Cc1cccc(-c2nn3c(c2-c2ccnc4c(F)cccc24)CCC3)n1` [8-Fluoro-4-[2-(6-methyl-pyridin-2-yl)-5,6-dihydro-4H-pyrrolo[1,2-b]pyrazol-3-yl]-quinoline] the figure was below 20 µM.
For the compound `Cc1cccc(-c2nn3c(c2-c2ccnc4cc(CCC(=O)N(C)C)ccc24)CCC3)n1` [N,N-Dimethyl-3-{4-[2-(6-methyl-pyridin-2-yl)-5,6-dihydro-4H-pyrrolo[1,2-b]pyrazol-3-yl]-quinolin-7-yl}-propionamide], the IC50 is below 20 µM.
`OCc1cccc(-c2nn3c(c2-c2ccnc4ccccc24)CCC3)n1` [[6-(3-Quinolin-4-yl-5,6-dihydro-4H-pyrrolo[1,2-b]pyrazol-2-yl)-pyridin-2-yl]-methanol]: the IC50 is below 20 µM.

In general, IC50 refers to the concentration at which inhibition is half-maximal. A lower IC50 goes with greater potency in that assay.
